Series [1] is described as follows: XRPD, NMR and LC-MS of Compound 1 before and after jet milling. The series is classed as physicochemical. On the procedure:
X-ray powder diffraction (XRPD) data were collected using a Bruker D8 Advance powder diffractometer. The samples were irradiated with copper K-alpha X-rays (λ=1.54179 Å) with the generator operating at 40 kV/40 mA. The samples were scanned in continuous mode from 3° to 40° (2 θ) with a sample rotation speed of 15 rpm and a scanning rate of 10°/min.
Proton NMR (^1H-NMR), Florine NMR (^19F-NMR) and LC-MS analyses were also carried out on Compound 1 before jet milling and after jet milling.

Series [2] can be described thus: Phase 1 single/multiple ascending dose and food effect trial in healthy volunteers: pharmacokinetics (plasma, urine). The series is classed as in vivo, human. An excerpt: This is a three-part clinical trial to evaluate the safety, tolerability, PK, and food effect of Compound 1 in healthy volunteers aged 18 to 55 years inclusive. The clinical trial is comprised of the following 3 parts: • Part A is randomized, double-blinded and placebo-controlled. Part A is designed to investigate the safety and PK of single ascending doses of Compound 1. • Part B is randomized, double-blinded and placebo-controlled. Part B is designed to investigate the safety and PK of multiple ascending doses of Compound 1 (selected based on the results from Part A). • Part C is a randomized, open-label, crossover design to investigate the PK of a single dose of Compound 1 in the fasted and fed state. Objectives and Endpoints: Part A
Part C may commence once the safety and PK have been adequately evaluated in the last cohort of Part A. Up to 16 participants receive two doses of Compound 1, one dose after a minimum of 10 hours fasting and one after consumption of a high-fat, high calorie meal in a randomized crossover design, with a 7 day washout in between periods. Up to 3 additional days of washout may be added between fasted and fed dosing based on the observed half-life in Part A.
A validated bioanalytical method is utilized for the determination of plasma and urine concentrations of Compound 1. Plasma and urine concentrations are summarized by dose group/condition and timepoint using descriptive statistics. In addition to descriptive statistics specified in General Conditions above, plasma concentrations are also summarized using number and percentage of concentrations below the level of quantification (BLQ) and coefficient of variation (CV %).
Pharmacokinetic parameters are estimated from concentration-time data using standard non-compartmental methods. Urine PK parameters are estimated from urine concentration and urine volume data. PK parameters are summarized by dose group/condition using descriptive statistics. In addition to descriptive statistics specified in General Conditions above, PK parameters are summarized using CV %, geometric mean, and geometric coefficient of variation. PK parameters are assessed for linearity and dose proportionality using the power model where feasible. To test for a food effect in Part C, the geometric mean ratio (In transformed) of the test treatment (ie, fed condition) relative to the reference treatment (ie, fasted condition) are estimated with the 90% CIs calculated for Cmax and AUC0-inf. […]
Part C may commence once the safety and PK have been adequately evaluated in the last cohort of Part A. Participants receive two doses of Compound 1, one dose after a minimum of 10 hours fasting and one after consumption of a high-fat, high calorie meal in a randomized crossover design, with a 7 day washout in between periods. […]

Series [3] can be described thus: Stability of suspension formulations in methylcellulose/Poloxamer 188 vehicles (appearance, concentration, purity, PSD). Particulars: 96 h at RT. The format is physicochemical. Details: key: *: homogeneous suspension initially, sedimentation occurred over time and returned to homogeneous after gentle agitation for ~1 min; #: viscous homogeneous suspension initially, sedimentation occurred over time and returned to homogeneous after gentle agitation for ~2 mins. On the procedure:
As shown in Tables 9-11, various suspension formulations were tested for stability under different conditions.
To prepare a suspension weigh required amount of milled Compound 1 into a glass container and add corresponding volume of the vehicle. Thoroughly disperse the compound into a homogenous suspension using an overhead mixer at the final concentration target. Concentrations were prepared at 0.1 mg/mL and at 10 mg/mL. The suspension products were physically evaluated on visual appearance, concentration, purity and PSD.
The vehicles are prepared by dissolving 0.5% by weight of either 400 cP methylcellulose or 4000 cP methylcellulose and 0.2% Poloxamer 188. For the preserved suspensions, additionally 1.0% by volume of paraben preservative solution was dissolved into vehicle using an overhead mixer. The paraben preservative solution was prepared by dissolving 0.10 g methyl paraben, 0.025 g propylparaben in 9.875 g propylene glycol dissolved by mixing with a stir bar at room temperature for 1 hour.

Each structure is given as a SMILES string.

The values that follow come from patent US12552797B2, “Process for making (3-[cyclopropylethoxy(difluoro)methyl]-6-6[5-fluoro-6-(2,2,2-trifluoroethoxy-3-pyridyl]- [1,2,4]triazolo[4,3-a]pyrazine” (Praxis Precision Medicines, Inc., priority 2019, dated 2026).

With `CCOC(F)(F)c1nnc2cnc(-c3cnc(OCC(F)(F)F)c(F)c3)cn12` [Compound 1, 3-(ethoxydifluoromethyl)-6-(5-fluoro-6-(2,2,2-trifluoroethoxy)pyridin-3-yl)-[1,2,4]triazolo[4,3-a]pyrazine], the “physical form change (XRPD)” value in series [1] (after jet-milling) was “no physical form change”. In series [1] (due to jet milling), the “chemical or structural change (NMR, LC-MS)” value was “no observed chemical or structural change”. The “time to maximal concentrations” value in series [2] (healthy volunteers, oral capsules, fasted, preliminary data) lay within 2 to 3 h. Moreover, the “exposure versus dose level” value in series [2] (healthy volunteers, preliminary data) was “increase proportionate to dose level”. Also, the half-life in series [2] (human, plasma, oral, average across groups, healthy volunteers, preliminary data, read-out: Terminal elimination half-life (converted)) was 114 h. Further, in series [2] (once daily dosing), the “time to 90% of steady-state” value is recorded as “approximately 2 weeks”. For the same compound, the “Visual Appearance” value is on record as “*” in series [3] (0.5% 400 cP MC, 0.2% Poloxamer 188, 0.1 mg/mL); “*” in series [3] (0.5% 400 cP MC, 0.2% Poloxamer 188, 10 mg/mL); “*” in series [3] (0.5% 400 cP MC, 0.2% Poloxamer 188 and 1.0% of paraben preservative solution, 0.1 mg/mL); “*” in series [3] (0.5% 400 cP MC, 0.2% Poloxamer 188 and 1.0% of paraben preservative solution, 10 mg/mL); “#” in series [3] (0.5% 4000 cP MC, 0.2% Poloxamer 188, 0.1 mg/mL); “#” in series [3] (0.5% 4000 cP MC, 0.2% Poloxamer 188, 10 mg/mL). Further, the “Visual Appearance” value was “#” in series [3] (0.5% 4000 cP MC, 0.2% Poloxamer 188 and 1.0% of paraben preservative solution, 0.1 mg/mL); “#” in series [3] (0.5% 4000 cP MC, 0.2% Poloxamer 188 and 1.0% of paraben preservative solution, 10 mg/mL).

For orientation: half-life means the time in which the quantity being followed falls by half.
